Test results as given in US7462600B2, “Macrolides” (Pfizer Inc, priority 2004, dated 2008).
In brackets after ≈: the same amount, converted by molar mass. Read-outs that look alike come from different tables or passages of the source.

Tests used:
Type in all cases: cell-based
[1] = test system: Streptococcus pyogenes 1079; assay: MIC, microtiter broth dilution (NCCLS M100-S14), S. pyogenes 1079 (ermB)
Method in brief: (§1)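 Broth microdilution MICs in microtiter trays, run and interpreted per NCCLS M100-S14. Compounds were dissolved in DMSO as 40 mg/ml stocks.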

[2] = test system: Haemophilus influenzae 1218; assay: MIC, microtiter broth dilution (NCCLS M100-S14), H. influenzae 1218 (susceptible)
Method in brief: as §1

[3] = test system: Streptococcus pneumoniae 1175; conditions: microtiter broth dilution
Method in brief: as §1

[4] = test system: Streptococcus pneumoniae 1095; conditions: microtiter broth dilution
Method in brief: as §1

[5] = test system: Streptococcus pneumoniae 1016; assay: MIC, microtiter broth dilution (NCCLS M100-S14), S. pneumoniae 1016 (susceptible)
Method in brief: as §1

[6] = H. influenzae 1218 (susceptible)
[7] = S. pneumoniae 1016 (susceptible)

SMILES | MIC S. pyogenes 1079 ([1]; Streptococcus pyogenes 1079) [µg/mL] | MIC H. influenzae 1218 ([2]; Haemophilus influenzae 1218) [µg/mL] | MIC S. pneumo. 1175 ([3]; Streptococcus pneumoniae 1175) [µg/mL] | MIC S. pneumo. 1095 ([4]; Streptococcus pneumoniae 1095) [µg/mL] | MIC S. pneumo. 1016 ([5]; Streptococcus pneumoniae 1016) [µg/mL] | MIC S. pyogenes 1079 ([1]; S. pyogenes 1079 (ermB)) [µg/mL] | MIC H. influenzae 1218 [2, 6] [µg/mL] | MIC S. pneumo. 1175 ([3]; S. pneumoniae 1175 (mefA)) [µg/mL] | MIC S. pneumo. 1095 ([4]; S. pneumoniae 1095 (ermB)) [µg/mL] | MIC S. pneumo. 1016 [5, 7] [µg/mL]
CCC1OC(=O)C(C)C(=O)C(C)C(OC2OC(C)CC(N(C)C)C2O)C(C)(OC)CC(C)C(=O)C(C)C2N(C3CN(S(=O)(=O)c4ccc(OC)nc4)C3)C(=O)OC12C (stereo not drawn) [Example 3.38, 6-methoxypyridine-3-sulfonyl] | 64 (≈ 76.3 µM) | 0.5 (≈ 0.596 µM) | <0.06 | 1 (≈ 1.19 µM) | <0.06 | – | – | – | – | –
CCC1OC(=O)C(C)C(=O)C(C)C(OC2OC(C)CC(N(C)C)C2O)C(C)(OC)CC(C)C(=O)C(C)C2N(C3CN(Cc4ccccc4)C3)C(=O)OC12C (stereo not drawn) [Example 1.01, benzyl] | >64.00 | 0.5 (≈ 0.66 µM) | 0.12 (≈ 0.158 µM) | <0.06 | <0.06 | – | – | – | – | –
CC[C@H]1OC(=O)[C@H](C)C(=O)[C@H](C)[C@@H](O[C@@H]2O[C@H](C)C[C@H](N(C)C)[C@H]2O)[C@](C)(OC)C[C@@H](C)C(=O)[C@H](C)[C@H]2N(CC3(O)CN(C(=O)c4cncc5ccccc45)C3)C(=O)O[C@]12C [7.23] | – | – | – | – | – | >64.00 | 2 (≈ 2.34 µM) | 0.5 (≈ 0.586 µM) | 0.5 (≈ 0.586 µM) | <0.06
CCC1OC(=O)C(C)C(=O)C(C)C(OC2OC(C)CC(N(C)C)C2O)C(C)(OC)CC(C)C(=O)C(C)C2N(CC3CN(Cc4c[nH]c5cnccc45)C3)C(=O)OC12C (stereo not drawn) [4.19] | 64 (≈ 78.8 µM) | 0.5 (≈ 0.616 µM) | 1 (≈ 1.23 µM) | <0.06 | <0.06 | – | – | – | – | –
CCC1OC(=O)C(C)C(=O)C(C)C(OC2OC(C)CC(N(C)C)C2O)C(C)(OC)CC(C)C(=O)C(C)C2N(C3CN(S(=O)(=O)c4cccc(-c5ncno5)c4)C3)C(=O)OC12C (stereo not drawn) [Example 3.59] | 64 (≈ 73.1 µM) | 16 (≈ 18.3 µM) | 8 (≈ 9.13 µM) | 8 (≈ 9.13 µM) | <0.06 | – | – | – | – | –
CC[C@H]1OC(=O)[C@H](C)C(=O)[C@H](C)[C@@H](O[C@@H]2O[C@H](C)C[C@H](N(C)C)[C@H]2O)[C@](C)(OC)C[C@@H](C)C(=O)[C@H](C)[C@H]2N(C3CN(C(C)c4ccnc5ccccc45)C3)C(=O)O[C@]12C (stereo partly drawn) [Example 1.63, 3-descladinosyl-11,12-dideoxy-6-O-methyl-3-oxo-12,11-(oxycarbonyl-(1-(1-(quinolin-4-yl)-ethyl)-azetidin-3-yl)-imino)-erythromycin A] | 2 (≈ 2.43 µM) | 1 (≈ 1.22 µM) | 0.12 (≈ 0.146 µM) | <0.06 | <0.06 | – | – | – | – | –
CCC1OC(=O)C(C)C(=O)C(C)C(OC2OC(C)CC(N(C)C)C2O)C(C)(OC)CC(C)C(=O)C(C)C2N(C3CN(C(C)c4ccnc5ncccc45)C3)C(=O)OC12C (stereo not drawn) [Example 1.23, 3-descladinosyl-11,12-dideoxy-6-O-methyl-3-oxo-12,11-(oxycarbonyl-(1-(1S-(1,8-naphthyridin4-yl)-ethyl)-azetidin-3-yl)-imino)-erythromycin A] | 16 (≈ 19.4 µM) | 0.5 (≈ 0.607 µM) | 0.25 (≈ 0.303 µM) | <0.06 | <0.06 | – | – | – | – | –
CCC1OC(=O)C(C)C(=O)C(C)C(OC2OC(C)CC(N(C)C)C2O)C(C)(OC)CC(C)C(=O)C(C)C2N(C3CN(S(=O)(=O)c4cncc(-c5cnco5)c4)C3)C(=O)OC12C (stereo not drawn) [Example 3.75] | 16 (≈ 18.3 µM) | 1 (≈ 1.14 µM) | <0.06 | <0.06 | <0.06 | – | – | – | – | –
CC[C@H]1OC(=O)[C@H](C)C(=O)[C@H](C)[C@@H](O[C@@H]2O[C@H](C)C[C@H](N(C)C)[C@H]2O)[C@](C)(OC)C[C@@H](C)C(=O)[C@H](C)[C@H]2N(CC3(O)CN(C(=O)c4cc5cccnc5[nH]4)C3)C(=O)O[C@]12C [7.26] | – | – | – | – | – | >64.00 | 0.5 (≈ 0.594 µM) | 0.25 (≈ 0.297 µM) | 0.12 (≈ 0.143 µM) | <0.06
CCC1OC(=O)C(C)C(=O)C(C)C(OC2OC(C)CC(N(C)C)C2O)C(C)(OC)CC(C)C(=O)C(C)C2N(C3CN(S(=O)(=O)c4ccc(-n5cccn5)cc4)C3)C(=O)OC12C (stereo not drawn) [Example 3.44, 3-descladinosyl-11,12-dideoxy-6-O-methyl-3-oxo-12,11-(oxycarbonyl-(1-(4-(1H-pyrazol-1-yl)benzenesulfonyl)-azetidin-3-yl)-imino)-erythromycin A] | 0.12 (≈ 0.137 µM) | 0.25 (≈ 0.286 µM) | <0.06 | <0.06 | <0.06 | – | – | – | – | –
CCC1OC(=O)C(C)C(=O)C(C)C(OC2OC(C)CC(N(C)C)C2O)C(C)(OC)CC(C)C(=O)C(C)C2N(CC3CN(Cc4cnn(-c5cccc(F)c5)c4)C3)C(=O)OC12C (stereo not drawn) [4.21] | 64 (≈ 74.8 µM) | 0.5 (≈ 0.584 µM) | <0.06 | 2 (≈ 2.34 µM) | <0.06 | – | – | – | – | –
CCC1OC(=O)C(C)C(=O)C(C)C(OC2OC(C)CC(N(C)C)C2O)C(C)(OC)CC(C)C(=O)C(C)C2N(C3CN(S(=O)(=O)c4ccc(N5CCOCC5)c(F)c4)C3)C(=O)OC12C (stereo not drawn) [Example 3.46, 3-fluoro-4-morpholinobenzenesulfonyl] | 32 (≈ 35.1 µM) | 2 (≈ 2.2 µM) | <0.06 | 0.5 (≈ 0.549 µM) | <0.06 | – | – | – | – | –
CCC1OC(=O)C(C)C(=O)C(C)C(OC2OC(C)CC(N(C)C)C2O)C(C)(OC)CC(C)C(=O)C(C)C2N(CC3CN(C(=O)c4cccc5ncoc45)C3)C(=O)OC12C.O=CO (stereo not drawn) [4.46] | 64 | 1 | <0.06 | 0.5 | <0.06 | – | – | – | – | –
CCC1OC(=O)C(C)C(=O)C(C)C(OC2OC(C)CC(N(C)C)C2O)C(C)(OC)CC(C)C(=O)C(C)C2N(CC3CN(C(=O)c4cnc5ccccc5c4)C3)C(=O)OC12C.O=CO (stereo not drawn) [4.38] | >64.00 | 2 | <0.06 | 2 | <0.06 | – | – | – | – | –
CCC1OC(=O)C(C)C(=O)C(C)C(OC2OC(C)CC(N(C)C)C2O)C(C)(OC)CC(C)C(=O)C(C)C2N(CC3CN(Cc4ccnc5ccccc45)C3)C(=O)OC12C (stereo not drawn) [4.13] | 32 (≈ 38.9 µM) | 1 (≈ 1.22 µM) | <0.06 | 0.5 (≈ 0.608 µM) | <0.06 | – | – | – | – | –
CC[C@H]1OC(=O)[C@H](C)C(=O)[C@H](C)[C@@H](O[C@@H]2O[C@H](C)C[C@H](N(C)C)[C@H]2O)[C@](C)(OC)C[C@@H](C)C(=O)[C@H](C)[C@H]2N(CC3(C)CN(Cc4c[nH]c5ncccc45)C3)C(=O)O[C@]12C [6.03] | 16 (≈ 19.4 µM) | 0.5 (≈ 0.605 µM) | 0.12 (≈ 0.145 µM) | <0.06 | <0.06 | – | – | – | – | –
CCC1OC(=O)C(C)C(=O)C(C)C(OC2OC(C)CC(N(C)C)C2O)C(C)(OC)CC(C)C(=O)C(C)C2N(C3CN(Cc4cccc(-c5cnco5)c4)C3)C(=O)OC12C (stereo not drawn) [Example 1.47, 3-(oxazol-5-yl)benzyl] | 64 (≈ 77.6 µM) | 0.25 (≈ 0.303 µM) | <0.06 | <0.06 | <0.06 | – | – | – | – | –
CCC1OC(=O)C(C)C(=O)C(C)C(OC2OC(C)CC(N(C)C)C2O)C(C)(OC)CC(C)C(=O)C(C)C2N(C3CN(Cc4ccc(=O)n5ccccc45)C3)C(=O)OC12C (stereo not drawn) [Example 1.82, 3-descladinosyl-11,12-dideoxy-6-O-methyl-3-oxo-12,11-(oxycarbonyl-(1-(4H-quinolizin-4-one-1-methyl)-azetidin-3-yl)-imino)-erythromycin A] | 4 (≈ 4.85 µM) | 0.5 (≈ 0.606 µM) | <0.063 | <0.063 | <0.063 | – | – | – | – | –
